pEC50: −log10 of the molar value.
What was measured:
Assay in all cases: cells
Assay type in all cases: cell-based
[1] = system: influenza A virus minigenome (PB2, PB1, PA, NP) RNP_Alaska in 293T cells; settings: HEK-293T, 48 h, read-out: RNP_Alaska EC50
[2] = system: influenza A virus minigenome (PB2, PB1, PA, NP) RNP_CAL in 293T cells; settings: HEK-293T, 48 h, read-out: RNP_CAL_EC50
[3] = system: influenza virus minigenome (PB2, PB1, PA, NP) RNP_Hubei in 293T cells; settings: unidentified influenza virus, HEK-293T, 48 h, read-out: RNP_Hubei EC50

Row | SMILES | pEC50 [1] | pEC50 [2] | pEC50 [3]
1 | O=c1cnn2c(c1O)-c1nccn1CC2C(c1ccccc1)c1ccccc1 (stereo not shown) [Example 1, 6-Benzhydryl-11-hydroxy-5H-imidazo[2′,1′:3,4]pyrazino[1,2-b]pyridazin-10(6H)-one] | 6.89 | 6.96 | 6.96
2 | O=c1cnn2c(c1O)-c1nccn1CC2C(c1cccc(F)c1)c1cccc(F)c1 (stereo not shown) [Example 2, 6-(bis(3-fluorophenyl)methyl)-11-hydroxy-5,6-dihydro-10H-imidazo[2′,1′:3,4]pyrazino[1,2-b]pyridazin-10-one] | 6.96 | 6.96 | 7.05
3 | O=c1cnn2c(c1O)-c1ncnn1CC2C(c1ccccc1)c1ccccc1 (stereo not shown) [Example 3, 6-benzhydryl-11-hydroxy-5,6-dihydro-10H-[1,2,4]triazolo[5′,1′:3,4]pyrazino[1,2-b]pyridazin-10-one] | 5.85 | 5.96 | 6.10
4 | O=c1ccn2c(c1O)-c1nccn1C[C@@H]2C(c1ccccc1)c1ccccc1 [Example 4, (S)-6-Benzhydryl-11-hydroxy-5H-imidazo[1,2-a]pyrido[2,1-c]pyrazin-10(6H)-one] | 6.74 | 6.80 | 7.05
5 | O=c1ccn2c(c1O)-c1ncc(Cl)n1C[C@@H]2C(c1ccccc1)c1ccccc1 [Example 5, (S)-6-Benzhydryl-3-chloro-11-hydroxy-5,6-dihydro-10H-imidazo[1,2-a]pyrido[2,1-c]pyrazin-10-one] | 6.66 | 7.00 | 6.74
6 | O=c1ccn2c(c1O)-c1nccn1CN2C(c1ccccc1)c1ccccc1 [Example 6, 6-benzhydryl-11-hydroxy-5H-imidazo[1,2-d]pyrido[2,1-f][1,2,4]triazin-10(6H)-one] | 6.82 | 6.72 | 7.00
7 | O=c1ccn2c(c1O)-c1ncc(Br)n1C[C@@H]2C(c1ccccc1)c1ccccc1 [Example 7, (S)-6-benzhydryl-3-bromo-11-hydroxy-5H-imidazo[1,2-a]pyrido[2,1-c]pyrazin-10(6H)-one] | 6.85 | 6.77 | 6.80
8 | O=c1ccn2c(c1O)-c1ncc(C3CC3)n1C[C@@H]2C(c1ccccc1)c1ccccc1 [Example 8, (S)-6-benzhydryl-3-cyclopropyl-11-hydroxy-5H-imidazo[1,2-a]pyrido[2,1-c]pyrazin-10(6H)-one] | 6.31 | 6.82 | 6.28
9 | CCc1cnc2n1C[C@H](C(c1ccccc1)c1ccccc1)n1ccc(=O)c(O)c1-2 [Example 9, (S)-6-benzhydryl-3-ethyl-11-hydroxy-5H-imidazo[1,2-a]pyrido[2,1-c]pyrazin-10(6H)-one] | 6.07 | 6.24 | 6.23
10 | O=c1cnn2c(c1O)-c1nccn1CC2C(c1ccc(Cl)cc1)c1ccc(Cl)cc1 (stereo not shown) [Example 10, 6-(bis(4-chlorophenyl)methyl)-11-hydroxy-5H-imidazo[2′,1′:3,4]pyrazino[1,2-b]pyridazin-10(6H)-one] | 6.54 | 6.49 | 6.09
11 | O=c1cnn2c(c1O)-c1nccn1CC2C(c1cccc(Cl)c1)c1cccc(Cl)c1 (stereo not shown) [Example 11, 6-(bis(3-chlorophenyl)methyl)-11-hydroxy-5H-imidazo[2′,1′:3,4]pyrazino[1,2-b]pyridazin-10(6H)-one] | 6.80 | 7.10 | 7.05
12 | O=c1cnn2c(c1O)-c1nccn1CC2C(c1ccc(F)cc1)c1ccc(F)cc1 (stereo not shown) [Example 12, 6-(bis(4-fluorophenyl)methyl)-11-hydroxy-5H-imidazo[2′,1′:3,4]pyrazino[1,2-b]pyridazin-10(6H)-one] | 7.15 | 6.10 | 7.22
13 | Cc1cnc2n1C[C@H](C(c1ccccc1)c1ccccc1)n1ccc(=O)c(O)c1-2 [Example 13, (S)-6-benzhydryl-11-hydroxy-3-methyl-5H-imidazo[1,2-a]pyrido[2,1-c]pyrazin-10(6H)-one] | 6.24 | 6.51 | 6.52
14 | Cc1nc2n(c1C)C[C@H](C(c1ccccc1)c1ccccc1)n1ccc(=O)c(O)c1-2 [Example 14, (S)-6-benzhydryl-11-hydroxy-2,3-dimethyl-5H-imidazo[1,2-a]pyrido[2,1-c]pyrazin-10(6H)-one] | 5.17 | 5.38 | 5.26
15 | O=c1cnn2c(c1O)-c1nccn1C[C@@H]2C(c1cccc(Cl)c1)c1cccc(Cl)c1 [Example 15, (S)-6-(bis(3-chlorophenyl)methyl)-11-hydroxy-5H-imidazo [2′,1′:3,4] pyrazino [1,2-b]pyridazin-10(6H)-one] | 7.40 | 7.60 | 7.72
16 | O=c1cnn2c(c1O)-c1nccn1C[C@H]2C(c1cccc(Cl)c1)c1cccc(Cl)c1 [Example 16, (R)-6-(bis(3-chlorophenyl)methyl)-11-hydroxy-5H-imidazo[2′,1′:3,4] pyrazino [1,2-b]pyridazin-10(6H)-one] | 6.02 | 6.09 | 6.02
17 | O=c1cnn2c(c1O)-c1nccn1C[C@@H]2[C@H](c1ccccc1)c1ccc(F)cc1 [Example 17, (S)-6-((R)-(4-fluorophenyl)(phenyl)methyl)-11-hydroxy-5,6-dihydro-10H-imidazo[2′,1′:3,4]pyrazino[1,2-b]pyridazin-10-one] | 7.52 | 8.00 | 7.15
18 | O=c1cnn2c(c1O)-c1nccn1C[C@@H]2[C@@H](c1ccccc1)c1ccc(F)cc1 [Example 18, (S)-6-((S)-(4-fluorophenyl)(phenyl)methyl)-11-hydroxy-5,6-dihydro-10H-imidazo[2′,1′:3,4]pyrazino[1,2-b]pyridazin-10-one] | 6.89 | 6.89 | 6.80
19 | O=c1cnn2c(c1O)-c1nccn1C[C@@H]2[C@H](c1ccc(F)cc1)c1cncc(F)c1 [Example 19, (S)-6-((R)-(4-fluorophenyl)(5-fluoropyridin-3-yl)methyl)-11-hydroxy-5,6-dihydro-10H-imidazo[2′,1′:3,4]pyrazino[1,2-b]pyridazin-10-one] | 6.64 | 6.59 | 6.31
20 | O=c1cnn2c(c1O)-c1nccn1C[C@@H]2[C@H](c1ccc(F)cc1)c1ccc(C(F)(F)F)nc1 [Example 20, (S)-6-((R)-(4-fluorophenyl)(6-(trifluoromethyl)pyridin-3-yl)methyl)-11-hydroxy-5,6-dihydro-10H-imidazo[2′,1′:3,4]pyrazino[1,2-b]pyridazin-10-one] | 6.16 | 6.14 | 6.13
21 | O=c1cnn2c(c1O)-c1nccn1C[C@@H]2[C@@H](c1ccc(F)cc1)c1cccc(C(F)(F)F)c1 [Example 21, (S)-6-((S)-(4-fluorophenyl)(3-(trifluoromethyl)phenyl)methyl)-11-hydroxy-5,6-dihydro-10H-imidazo[2′,1′:3,4]pyrazino[1,2-b]pyridazin-10-one] | 7.15 | 7.28 | 6.96
22 | O=c1cnn2c(c1O)-c1nccn1C[C@@H]2C(c1ccc(F)cc1)c1ccc(F)cc1 [Example 22, (S)-6-(bis(4-fluorophenyl)methyl)-11-hydroxy-5,6-dihydro-10H-imidazo[2′,1′:3,4]pyrazino[1,2-b]pyridazin-10-one] | 7.57 | 7.09 | 8.00
23 | O=c1cnn2c(c1O)-c1nccn1C[C@@H]2C(c1cccc(F)c1)c1cccc(F)c1 [Example 23, (S)-6-(bis(3-fluorophenyl)methyl)-11-hydroxy-5,6-dihydro-10H-imidazo[2′,1′:3,4]pyrazino[1,2-b]pyridazin-10-one] | 7.64 | 7.41 | 7.44
24 | O=c1cnn2c(c1O)-c1nccn1C[C@@H]2[C@@H](c1ccc(F)cc1)c1cccc(F)c1 [Example 24, (S)-6-((S)-(3-fluorophenyl)(4-fluorophenyl)methyl)-11-hydroxy-5,6-dihydro-10H-imidazo[2′,1′:3,4]pyrazino[1,2-b]pyridazin-10-one] | 7.28 | 7.44 | 7.23
25 | O=c1cnn2c(c1O)-c1nccn1C[C@@H]2[C@@H](c1ccc(F)cc1)c1ccc(F)c(F)c1 [Example 25, (S)-6-((S)-(3,4-difluorophenyl)(4-fluorophenyl)methyl)-11-hydroxy-5H-imidazo[2′,1′:3,4]pyrazino[1,2-b]pyridazin-10(6H)-one] | 7.21 | 7.25 | 7.00
26 | O=c1cnn2c(c1O)-c1nccn1C[C@@H]2[C@H](c1ccc(F)cc1)c1cccc(F)c1 [Example 26, (S)-6-((R)-(3-fluorophenyl)(4-fluorophenyl)methyl)-11-hydroxy-5,6-dihydro-10H-imidazo[2′,1′:3,4]pyrazino[1,2-b]pyridazin-10-one] | 7.57 | 7.42 | 7.29
27 | Cc1cc(F)ccc1[C@H](c1ccc(F)cc1)[C@H]1Cn2ccnc2-c2c(O)c(=O)cnn21 [Example 27, (S)-6-((S)-(4-fluoro-2-methylphenyl)(4-fluorophenyl)methyl)-11-hydroxy-5,6-dihydro-10H-imidazo[2′,1′:3,4]pyrazino[1,2-b]pyridazin-10-one] | 7.30 | 7.30 | 7.57
28 | O=c1ccn2c(c1O)-c1nccn1C(C1CC1)N2C(c1ccccc1)c1ccccc1 (stereo not shown) [Example 73, 6-benzhydryl-5-cyclopropyl-11-hydroxy-5,6-dihydro-10H-imidazo[1,2-d]pyrido[2,1-f][1,2,4]triazin-10-one] | 6.41 | 6.77 | 
29 | O=c1ccn2c(c1O)-c1ncsc1CN2C(c1ccccc1)c1ccccc1 [Example 81, 5-benzhydryl-10-hydroxy-4,5-dihydro-9H-pyrido[1,2-b]thiazolo[4,5-d]pyridazin-9-one] | 5.66 | 5.15 | 
